Measured values published in PubChem BioAssay (NCI).
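Growth conditions: 96-well plates. Treatment: test compound, 48 hours, 5 concentrations. Analysis: linear interpolation between bracketing concentrations; unreached endpoints set to highest concentration. Here, GI50 denotes the concentration required for 50% inhibition of growth. TGI marks complete inhibition of growth.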

Experiments:
Test in all cases: inhibition of tumour cell growth, NCI panel, 48 h
[1] = tested on: UACC-62 melanoma
[2] = tested on: MALME-3M melanoma
[3] = tested on: NCI-H23 lung
[4] = tested on: K-562 leukemia
[5] = tested on: TK-10 renal
[6] = tested on: A498 renal
[7] = tested on: CCRF-CEM leukemia
[8] = tested on: HS 578T breast
[9] = tested on: MOLT-4 leukemia
[10] = tested on: UO-31 renal
[11] = tested on: DU-145 prostate
[12] = tested on: HCC-2998 colon
[13] = tested on: SN12C renal
[14] = tested on: HOP-92 NSCLC
[15] = tested on: MDA-MB-435
[16] = tested on: CAKI-1 renal
[17] = tested on: SK-MEL-5 melanoma
[18] = tested on: OVCAR-5 ovarian
[19] = tested on: NCI/ADR-RES ovarian
[20] = tested on: SNB-75 CNS
[21] = tested on: U251 CNS
[22] = tested on: HOP-62 NSCLC
[23] = tested on: OVCAR-8 ovarian
[24] = tested on: SK-MEL-28 melanoma
[25] = tested on: HT29 colon
[26] = tested on: T-47D breast
[27] = tested on: SR leukemia
[28] = tested on: HCT-15 colon
[29] = tested on: SW-620 colon
[30] = tested on: RXF 393 renal
[31] = tested on: SF-539 CNS
[32] = tested on: 786-0 renal
[33] = tested on: SK-OV-3 ovarian
[34] = tested on: KM12 colon
[35] = tested on: NCI-H460 lung
[36] = tested on: A549 NSCLC
[37] = tested on: HCT-116 colon
[38] = tested on: SF-268 CNS
[39] = tested on: MCF7 breast
[40] = tested on: PC-3 prostate
[41] = tested on: SK-MEL-2 melanoma
[42] = tested on: OVCAR-4 ovarian
[43] = tested on: SNB-19 CNS
[44] = tested on: OVCAR-3 ovarian
[45] = tested on: HL-60(TB) leukemia
[46] = tested on: LOX IMVI melanoma
[47] = tested on: COLO 205 colon
[48] = tested on: UACC-257 melanoma
[49] = tested on: SF-295 CNS
[50] = tested on: IGROV1 ovarian
[51] = tested on: NCI-H522 lung
[52] = tested on: MDA-MB-231 breast
[53] = tested on: RPMI-8226 leukemia
[54] = tested on: M14 melanoma
[55] = tested on: BT-549 breast
[56] = tested on: NCI-H226 lung
[57] = tested on: ACHN renal

COc1cccc(C(=O)c2sc(Nc3ccc(N4CCN(C(C)C)CC4)cc3)nc2N)c1
GI50 [1]: 2.84 µM | TGI [1]: 6.21 µM | GI50 [2]: 3.02 µM | TGI [2]: 7.13 µM | GI50 [3]: 1.42 µM | TGI [3]: 8.01 µM | GI50 [4]: 3.22 µM | TGI [4]: > 22.1 µM | GI50 [5]: 1.34 µM | TGI [5]: 9.19 µM | GI50 [6]: 2.33 µM | TGI [6]: 8.24 µM | GI50 [7]: 0.788 µM | TGI [7]: 4.41 µM | GI50 [8]: 2.42 µM | TGI [8]: 11.4 µM | GI50 [9]: 0.966 µM | TGI [9]: 13.1 µM | GI50 [10]: 1.4 µM | TGI [10]: 7.16 µM | GI50 [11]: 1.14 µM | TGI [11]: > 25 µM | GI50 [12]: 3.39 µM | TGI [12]: 10.7 µM | GI50 [13]: 0.895 µM | TGI [13]: 13.8 µM | GI50 [14]: 0.545 µM | TGI [14]: 4.38 µM | GI50 [15]: 1.63 µM | TGI [15]: 5.68 µM | GI50 [16]: 1.01 µM | TGI [16]: > 8.2 µM | GI50 [17]: 1.33 µM | TGI [17]: 5.21 µM | GI50 [18]: 0.769 µM | TGI [18]: > 22.4 µM | GI50 [19]: 2.46 µM | TGI [19]: > 22.9 µM | GI50 [20]: 2.02 µM | TGI [20]: 5.34 µM | GI50 [21]: 0.949 µM | TGI [21]: 7.1 µM | GI50 [22]: 1.57 µM | TGI [22]: 11.9 µM | GI50 [23]: 1.49 µM | TGI [23]: 24.8 µM | GI50 [24]: 1.85 µM | TGI [24]: 7.05 µM | GI50 [25]: 0.997 µM | TGI [25]: 12.8 µM | GI50 [26]: 2.11 µM | TGI [26]: 13.5 µM | GI50 [27]: 0.478 µM | TGI [27]: > 7.24 µM | GI50 [28]: 0.962 µM | TGI [28]: > 25 µM | GI50 [29]: 0.853 µM | TGI [29]: > 13.1 µM | GI50 [30]: 0.437 µM | TGI [30]: 1.12 µM | GI50 [31]: 1.55 µM | TGI [31]: 4.65 µM | GI50 [32]: 1.61 µM | TGI [32]: 5.76 µM | GI50 [33]: 5.91 µM | TGI [33]: > 24.1 µM | GI50 [34]: 0.889 µM | TGI [34]: 7.13 µM | GI50 [35]: 0.92 µM | TGI [35]: 7.87 µM | GI50 [36]: 1.22 µM | TGI [36]: 12.5 µM | GI50 [37]: 0.845 µM | TGI [37]: > 25 µM | GI50 [38]: 1.52 µM | TGI [38]: 5.06 µM | GI50 [39]: 0.473 µM | TGI [39]: 3.38 µM | GI50 [40]: 0.892 µM | TGI [40]: 10.9 µM | GI50 [41]: 1.8 µM | TGI [41]: 5.49 µM | GI50 [42]: 3.48 µM | TGI [42]: 16.2 µM | GI50 [43]: 1.04 µM | TGI [43]: > 25 µM | GI50 [44]: 1.52 µM | TGI [44]: 9.18 µM | GI50 [45]: 0.661 µM | TGI [45]: 2.73 µM | GI50 [46]: 1.22 µM | TGI [46]: 4.88 µM | GI50 [47]: 0.694 µM | TGI [47]: 3.53 µM | GI50 [48]: 3.03 µM | TGI [48]: 6.34 µM | GI50 [49]: 2.55 µM | TGI [49]: 8.83 µM | GI50 [50]: 2.14 µM | TGI [50]: > 18.6 µM | GI50 [51]: 3.94 µM | TGI [51]: 7.86 µM | GI50 [52]: 1.84 µM | TGI [52]: > 19.8 µM | GI50 [53]: 1.34 µM | TGI [53]: 6.52 µM | GI50 [54]: 2.96 µM | TGI [54]: 7.12 µM | GI50 [55]: 3.62 µM | TGI [55]: 7.55 µM | GI50 [56]: 1.38 µM | TGI [56]: > 22.8 µM | GI50 [57]: 0.596 µM | TGI [57]: > 25 µM
